Test results from US6632981B1, “DNA sequences encoding polypeptides having beta-1,3-glucanase activity” (Novartis Finance Corporation, priority 1988, dated 2003).

Columns and labels:
[1] = tested on: chimeric PR-1a/GUS gene; experiment: Chemical induction of chimeric PR-1a/GUS gene in transgenic tobacco plants, β-glucuronidase assay of leaf extracts; type: in vivo, Nicotiana tabacum
Experimental: A. Gene expression is induced in plants obtained according to previously described procedures by applying a fine spray of a solution of 0.1 to 50 mM salicylic acid which has been adjusted to a pH between 6.0 and 8.0 with NaOH, to the leaves using a plant mister.
The plants are allowed to continue to grow for two days and are then harvested, frozen in liquid nitrogen and stored at −80° C. until they are assayed as described in Example 65 and/or Example 66.
B. Alternatively, the following solutions are used for induction:
(3) Methyl benzo-1,2,3-thiadiazole-7-carboxylate. The solution is made by resuspending a wettable powder containing the chemical in sterile water for several minutes at a concentration of 1 mg/ml. Insoluble solid is removed from the solution by filter sterilizing.
Frozen leaf tissue is ground in a mortar with a pestle in the presence of liquid nitrogen to produce a fine powder. Leaf extracts are prepared by mixing a given weight (g) with an equal volume (ml) of GUS extraction buffer (50 mM sodium phosphate buffer pH 7.0, 0.1% Triton-X 100, 0.1% sarkosyl, 10 mM β-mercaptoethanol) as described by Jefferson, R. A. et al., Proc. Natl. Acad. Sci. USA 83: 8447-8451 (1986).
The reactions are carried out in the wells of ELISA plates by mixing 5-25 l extract with 120-100 l GUS assay buffer (50 mM sodium phosphate buffer pH 7.0, 0.1% Triton X-100, 10 mM β-mercaptoethanol) containing 4-methyl umbelliferyl glucuronide (MU) at a final concentration of 2 mM in a total volume of 125 l. The plate is incubated at 37° C. for 1-5 hours and the reaction is stopped by the addition of 150 l 3 M Na2CO3. The concentration of fluorescent indicator released is determined by reading the plate on a Flow Labs Fluoroskan II ELISA plate reader.

[2] = tested on: chimeric PR-1a/GUS gene; experiment: Transient GUS expression in tobacco protoplasts treated with pCIB269; type: cell-based, N. tabacum; conditions: H2O 30.6 13
Experimental: B. DNA is introduced into protoplasts by a modification of the method of Negrutiu, I. et al., Plant Mol. Biol. 8: 363 (1987). The protoplasts prepared as described in part A are resuspended following the last washing step in a solution consisting of 0.4 M mannitol, 15-30 mM CaCl2, 0.1% w/v MES at a density of 1.6-2×10^6 per ml. The protoplast suspension is distributed as 0.5 ml aliquots into 10 ml plastic centrifuge tubes. DNA such as that described in Examples 28 to 40 is added in 10 l sterile distilled water, sterilized as described by Paszkowski, J. et al., EMBO J. 3: 2717 (1984), and then 0.5 ml of the PEG solution (40% (w/v) PEG MW 8000 in 0.4 M mannitol, 0.1 M Ca(NO3)2, pH 7.0) is added. The solutions are mixed gently and incubated for 30 minutes at room temperature (about 24° C.) with occasional shaking. 1 ml of the wash solution is then added, and the contents of the tube gently mixed. […]
The reactions are carried out in the wells of ELISA plates by mixing 5-25 l extract with 120-100 l GUS assay buffer (50 mM sodium phosphate buffer pH 7.0, 0.1% Triton X-100, 10 mM β-mercaptoethanol) containing 4-methyl umbelliferyl glucuronide (MU) at a final concentration of 2 mM in a total volume of 125 l. […] The concentration of fluorescent indicator released is determined by reading the plate on a Flow Labs Fluoroskan II ELISA plate reader.

[3] = tobacco plant Alu 1 (CIB272), water 5.6, buffer 20.5
[4] = tobacco plant Alu 2 (CIB272), water 2.0, buffer 8.9
[5] = tobacco plant Alu 3 (CIB272), water 0.1, buffer 2.0
[6] = tobacco plant Alu 4 (CIB272), water 2.1, buffer 6.1
[7] = tobacco plant Alu 5 (CIB272), water 0.6, buffer 0.5
[8] = tobacco plant Alu 6 (CIB272), water 0.8, buffer 3.1
[9] = tobacco plant Alu 7 (CIB272), water 1.7, buffer 21.7
[10] = tobacco plant Alu 8 (CIB272), water 0.6, buffer 0.6
[11] = tobacco plant Alu 9 (CIB272), water 0.9, buffer 0.3
[12] = tobacco plant Alu 10 (CIB272), water 4.0, buffer 8.1
[13] = tobacco plant Alu 11 (CIB272), water 1.6, buffer 2.2
[14] = tobacco plant Alu 12 (CIB272), water 0.7, buffer 2.3
[15] = tobacco plant Alu 13 (CIB272), water 0.1, buffer 1.9
[16] = tobacco plant H 1 (CIB271), water 5.39, buffer 20.1
[17] = tobacco plant H 3 (CIB271), water 0.21, buffer 1.66
[18] = tobacco plant H 4 (CIB271), water 8.39, buffer 2.28
[19] = tobacco plant H 6 (CIB271), water 0.10, buffer 0.09
[20] = tobacco plant H 9 (CIB271), water 0.23, buffer 0.5
[21] = tobacco plant Hae 1 (CIB273), water 0.6, buffer 1.7
[22] = tobacco plant Hae 2 (CIB273), water 2.3, buffer 0.4
[23] = tobacco plant Hae 3 (CIB273), water 1.7, buffer 3.0
[24] = tobacco plant Hae 4 (CIB273), water 2.0, buffer 1.7
[25] = tobacco plant Hae 5 (CIB273), water 18.1, buffer 36.6
[26] = tobacco plant Hae 8 (CIB273), water 0.4, buffer 0.6
[27] = tobacco plant Hae 9 (CIB273), water 2.6, buffer 12.5
[28] = tobacco plant Hae 10 (CIB273), water 1.6, buffer 13.5
[29] = tobacco plant Hae 11 (CIB273), water 2.6, buffer 3.9
[30] = tobacco plant Hae 12 (CIB273), water 0.2, buffer 0.6
[31] = tobacco plant Hae 13 (CIB273), water 0.01, buffer nd
[32] = tobacco plant Hae 14 (CIB273), water 0.1, buffer 0.1
[33] = tobacco plant Hae 15 (CIB273), water 0.1, buffer 3.4
[34] = tobacco plant Hae 16 (CIB273), water 0.1, buffer 0.8

| SMILES | Specific Activity nKat MU/mg protein [1, 3] [nKat MU/mg protein] | Specific Activity nKat MU/mg protein [1, 4] [nKat MU/mg protein] | Specific Activity nKat MU/mg protein [1, 5] | Specific Activity nKat MU/mg protein [1, 6] [nKat MU/mg protein] | Specific Activity nKat MU/mg protein [1, 7] | Specific Activity nKat MU/mg protein [1, 8] [nKat MU/mg protein] | Specific Activity nKat MU/mg protein [1, 9] [nKat MU/mg protein] | Specific Activity nKat MU/mg protein [1, 10] [nKat MU/mg protein] | Specific Activity nKat MU/mg protein [1, 11] [nKat MU/mg protein] | Specific Activity nKat MU/mg protein [1, 12] [nKat MU/mg protein] | Specific Activity nKat MU/mg protein [1, 13] | Specific Activity nKat MU/mg protein [1, 14] [nKat MU/mg protein] | Specific Activity nKat MU/mg protein [1, 15] [nKat MU/mg protein] | Specific Activity nKat MU/mg protein [1, 16] [nKat MU/mg protein] | Specific Activity nKat MU/mg protein [1, 17] [nKat MU/mg protein] | Specific Activity nKat MU/mg protein [1, 18] [nKat MU/mg protein] | Specific Activity nKat MU/mg protein [1, 19] | Specific Activity nKat MU/mg protein [1, 20] [nKat MU/mg protein] | Specific Activity nKat MU/mg protein [1, 21] [nKat MU/mg protein] | Specific Activity nKat MU/mg protein [1, 22] [nKat MU/mg protein] | also measured |
| --- | --- | --- | --- | --- | --- | --- | --- | --- | --- | --- | --- | --- | --- | --- | --- | --- | --- | --- | --- | --- | --- |
| COC(=O)c1cccc2nnsc12 [Methyl benzo-1,2,3-thiadiazole-7-carboxylate] | 206.9 | 83.2 | 2.0 ± .9 nKat MU/mg protein | 7.1 ± 2.6 | 1.2 ± .6 nKat MU/mg protein | 67.0 | 29.1 | 0.4 | 0.4 | 52.0 | 2.8 ± 1.3 nKat MU/mg protein | 73.4 | 13.2 | 13.5 ± 0.8 | 11.95 ± 0.85 | 18.52 ± 1.07 | 2.58 ± .01 nKat MU/mg protein | 9.1 | 2.6 | 11.8 | Specific Activity nKat MU/mg protein [1, 23]: 11.2 nKat MU/mg protein; Specific Activity nKat MU/mg protein [1, 24]: 10.8 nKat MU/mg protein; Specific Activity nKat MU/mg protein [1, 25]: 132.5 nKat MU/mg protein; Specific Activity nKat MU/mg protein [1, 26]: 28.9 nKat MU/mg protein; Specific Activity nKat MU/mg protein [1, 27]: 129.7 nKat MU/mg protein; Specific Activity nKat MU/mg protein [1, 28]: 98.2 nKat MU/mg protein; Specific Activity nKat MU/mg protein [1, 29]: 58.5 nKat MU/mg protein; Specific Activity nKat MU/mg protein [1, 30]: 5.8 nKat MU/mg protein; Specific Activity nKat MU/mg protein [1, 31]: 0.1 nKat MU/mg protein; Specific Activity nKat MU/mg protein [1, 32]: 8.6 nKat MU/mg protein; Specific Activity nKat MU/mg protein [1, 33]: 7.2 nKat MU/mg protein; Specific Activity nKat MU/mg protein [1, 34]: 4.3 nKat MU/mg protein; GUS activity, transient expression [2]: 66.6 pKat MU/mg protein |
| O=C(O)c1ccccc1O [Salicylic acid, salicylic acid] | 20.0 | 6.6 | 2.8 ± .9 nKat MU/mg protein | 43.0 ± 19 | 4.4 ± 2.3 nKat MU/mg protein | 28.8 | 38.7 | 0.4 | 0.6 | 39.2 | 1.9 ± .9 nKat MU/mg protein | 57.1 ± 22 | 19.1 | 13.9 ± 1.2 | 6.92 ± 0.88 | 27.5 ± 0.7 | 4.08 ± 0.58 nKat MU/mg protein | 10.8 | 1.6 | 8.8 | Specific Activity nKat MU/mg protein [1, 23]: 11.1 nKat MU/mg protein; Specific Activity nKat MU/mg protein [1, 24]: 8.1 nKat MU/mg protein; Specific Activity nKat MU/mg protein [1, 25]: 59.4 nKat MU/mg protein; Specific Activity nKat MU/mg protein [1, 26]: 30.6 nKat MU/mg protein; Specific Activity nKat MU/mg protein [1, 27]: 63.9 nKat MU/mg protein; Specific Activity nKat MU/mg protein [1, 28]: 70.5 nKat MU/mg protein; Specific Activity nKat MU/mg protein [1, 29]: 81.8 nKat MU/mg protein; Specific Activity nKat MU/mg protein [1, 30]: 2.5 nKat MU/mg protein; Specific Activity nKat MU/mg protein [1, 31]: 0.7 nKat MU/mg protein; Specific Activity nKat MU/mg protein [1, 32]: 1.8 nKat MU/mg protein; Specific Activity nKat MU/mg protein [1, 33]: 6.4 nKat MU/mg protein; Specific Activity nKat MU/mg protein [1, 34]: 2.3 nKat MU/mg protein |
